Entries after “also recorded” stand apart in the source; their conditions may differ.
What was measured:
human hepatocytes = experiment: MTT assay of cell proliferation and viability, human hepatocytes; format: cell-based; details: 18 h treatment
Procedure: Normal human primary hepatocytes isolated from healthy adults (no known history of HCC) in suspension or freshly-frozen prior to shipment (Cryoport Systems, CA) were purchased from Triangle Research Labs, NC. Fresh hepatocytes were plated on collagen-coated tissue culture plates or glass coverslips in Williams E complete media with additives (10% fetal bovine serum, 2 mM glutamine, […] insulin, 4 ng/ml glucagon, […] transferrin, 2.5 ng/ml sodium selenite, 10,000 U/ml penicillin, […] streptomycin, 50 g/ml gentamycin) for 3 h to ensure hepatocyte adherence to plates. Subsequently, hepatocytes were maintained in Williams E minimal media free from serum and growth factors for 24 h prior to treatment. Human hepatocellular carcinoma derived Huh7, and Hep3B, were cultured in Minimum Essential Medium Eagle (MEM); SNU-387 was cultured in Roswell Park Memorial Institute (RPMI) medium and PLC/PRF/5 cultured in Dulbecco's Modified Eagle's medium (DMEM). All maintenance culture media were supplemented with 10% fetal bovine serum (FBS), L-Glutamine (2 mM), penicillin (100 units/ml) and streptomycin ([…]) at 37° C. and 5% CO2. […]
Cell viability was determined using the 3-(4, 5-dimethylthiazol-2-yl)-2,5-diphenyltetrazolium (MTT, Sigma) assays. […] After shaking the plates for 30 min, the absorbance at 570 nm was measured (background subtraction at […]).

Hep3B cells = experiment: BrdU incorporation (proliferation) in Hep3B cells; format: cell-based, human
Procedure: Light microscopic images (10X) of BrdU immunostained cells are also shown. Hep3B cells were maintained in serum-free conditions for 24 hours and were pre-treated with AF-353 (5 μM) for 30 minutes, prior to treatment with ATP (100 μM) for 24 hours. BrdU-positive cells are expressed as a percentage of total number of cells. Data represents mean±SEM, n=3-6, *p<0.05 vs untreated (un). To determine whether P2 purinergic receptor activation influences HCC cell proliferation, BrdU incorporation was assessed in HCC cells maintained in SFM for 24 hours and treated with ATP for 24 hours. […] Hep3B, 46%; SNU-387, 47% and PLC/PRF/5, 24%), identifying nucleotides as liver cancer cell mitogens (FIG. 7A). Normal human primary hepatocytes isolated from healthy adults (no known history of HCC) in suspension or freshly-frozen prior to shipment (Cryoport Systems, CA) were purchased from Triangle Research Labs, NC. […] Formalin-fixed and paraffin embedded liver sections from HCC patients were analyzed by immunohistochemistry with anti-P2X3 antibody (Abcam, Cambridge, Mass.). […] BrdU positive cells were counted and expressed as a percentage of the total number of cells in ten randomly selected high-power fields (20×) per coverslips.

Huh7 cells [1] = experiment: qRT-PCR of YAP target genes in Huh7 cells; format: cell-based, human; details: 24 h treatment
Text: (§1) Total RNA was isolated from human livers or cells and was amplified by qRT-PCR as described recently (Oncotarget 2015; 6:41162-41179). Next, Applicants tested whether extracellular nucleotide treatment may have an effect on YAP target genes important in hepatocellular carcinoma. […] Moreover, P2X3 antagonist (AF-353) pretreatment attenuated ATP mediated induction of survivin (FIG. 20G).

Huh7 cells [2] = experiment: Western blotting for survivin in Huh7 cells; format: cell-based, human
Text: as §1, with “protein extracts were obtained by homogenizing” for “RNA was isolated from human livers or”, “cells in total lysis buffer” for “cells”, “analyzed” for “was amplified”, “Western blotting” for “qRT-PCR”

| SMILES | increase in cell proliferation and viability (MTT) (human hepatocytes) | proliferation (BrdU incorporation) induced by ATP (Hep3B cells; SFM 24 hours, ATP 24 hours) | AREG gene expression (Huh7 cells [1]) | CTGF gene expression (Huh7 cells [1]) | Sox9 gene expression (Huh7 cells [1]) | cyclin E gene expression (Huh7 cells [1]) | survivin gene expression (Huh7 cells [1]) | effect on ATP-mediated induction of BrdU incorporation (Hep3B cells; AF-353 5 μM pre-treatment 30 minutes, ATP 100 μM 24 hours) | effect on ATP mediated induction of survivin (Huh7 cells [2]; AF-353 pretreatment) | survivin protein expression (Huh7 cells [2]; ATPγS treatment alone) |
| --- | --- | --- | --- | --- | --- | --- | --- | --- | --- | --- |
| Nc1ncnc2c1ncn2[C@@H]1O[C@H](COP(=O)(O)OP(=O)(O)OP(=O)(O)O)[C@@H](O)[C@H]1O [ATP] | 27% | 46% | 5.1 fold | 3.4 fold | 2.0 fold | 2.1 fold | 1.1 fold |  |  |  |
| COc1cc(C(C)C)c(Oc2cnc(N)nc2N)cc1I [AF-353] |  |  |  |  |  |  |  | completely attenuated; also recorded: attenuates | attenuated |  |
| Nc1ncnc2c1ncn2[C@@H]1O[C@H](COP(=O)(O)OP(=O)(O)OP(O)(O)=S)[C@@H](O)[C@H]1O [ATPγS] | 64% |  | 3.3 fold | 2.2 fold | 1.6 fold | 2.0 fold | 1.1 fold |  |  | 1.8 fold |

Source: patent publication US20180271863A1, “TARGETING P2 PURINERGIC RECEPTORS TO TREAT HEPATOCELLULAR CARCINOMA (HCC)” (Baylor College of Medicine, priority 2015, published 2018)
